Reference: PubChem BioAssay (NCI)
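Test compounds were applied to cells in 96-well plates for 48 hours at 5 doses. GI50 = concentration required for 50% inhibition of growth. TGI: total growth inhibition.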

How the values were obtained:
Assay in all cases: NCI anticancer screen, dose series, 48 h
786-0 renal = tested on: 786-0 renal
A498 renal = tested on: A498 renal
A549 NSCLC = tested on: A549 NSCLC
ACHN renal = tested on: ACHN renal
BT-549 breast = tested on: BT-549 breast
CAKI-1 renal = tested on: CAKI-1 renal
COLO 205 colon = tested on: COLO 205 colon
DU-145 prostate = tested on: DU-145 prostate
HCT-116 colon = tested on: HCT-116 colon
HCT-15 colon = tested on: HCT-15 colon
HL-60(TB) leukemia = tested on: HL-60(TB) leukemia
HOP-62 NSCLC = tested on: HOP-62 NSCLC
HOP-92 NSCLC = tested on: HOP-92 NSCLC
HS 578T breast = tested on: HS 578T breast
HT29 colon = tested on: HT29 colon
IGROV1 ovarian = tested on: IGROV1 ovarian
K-562 leukemia = tested on: K-562 leukemia
KM12 colon = tested on: KM12 colon
LOX IMVI melanoma = tested on: LOX IMVI melanoma
M14 melanoma = tested on: M14 melanoma
MALME-3M melanoma = tested on: MALME-3M melanoma
MCF7 breast = tested on: MCF7 breast
MDA-MB-231 breast = tested on: MDA-MB-231 breast
MDA-MB-435 = tested on: MDA-MB-435
MOLT-4 leukemia = tested on: MOLT-4 leukemia
NCI-H226 lung = tested on: NCI-H226 lung
NCI-H23 lung = tested on: NCI-H23 lung
NCI-H460 lung = tested on: NCI-H460 lung
NCI-H522 lung = tested on: NCI-H522 lung
NCI/ADR-RES ovarian = tested on: NCI/ADR-RES ovarian
OVCAR-3 ovarian = tested on: OVCAR-3 ovarian
OVCAR-4 ovarian = tested on: OVCAR-4 ovarian
OVCAR-5 ovarian = tested on: OVCAR-5 ovarian
OVCAR-8 ovarian = tested on: OVCAR-8 ovarian
PC-3 prostate = tested on: PC-3 prostate
RXF 393 renal = tested on: RXF 393 renal
SF-268 CNS = tested on: SF-268 CNS
SF-295 CNS = tested on: SF-295 CNS
SF-539 CNS = tested on: SF-539 CNS
SK-MEL-2 melanoma = tested on: SK-MEL-2 melanoma
SK-MEL-28 melanoma = tested on: SK-MEL-28 melanoma
SK-MEL-5 melanoma = tested on: SK-MEL-5 melanoma
SK-OV-3 ovarian = tested on: SK-OV-3 ovarian
SN12C renal = tested on: SN12C renal
SNB-19 CNS = tested on: SNB-19 CNS
SNB-75 CNS = tested on: SNB-75 CNS
SR leukemia = tested on: SR leukemia
SW-620 colon = tested on: SW-620 colon
T-47D breast = tested on: T-47D breast
TK-10 renal = tested on: TK-10 renal
U251 CNS = tested on: U251 CNS
UACC-257 melanoma = tested on: UACC-257 melanoma
UACC-62 melanoma = tested on: UACC-62 melanoma
UO-31 renal = tested on: UO-31 renal
CCRF-CEM leukemia = tested on: CCRF-CEM leukemia
HCC-2998 colon = tested on: HCC-2998 colon
RPMI-8226 leukemia = tested on: RPMI-8226 leukemia

CC(=O)OCC1OC(n2nc(Cc3ccccc3)c(=S)[nH]c2=S)C(OC(C)=O)C(OC(C)=O)C1OC(C)=O (stereo not drawn)
TGI (786-0 renal): > 100 µM | TGI (A498 renal): > 100 µM | TGI (A549 NSCLC): > 100 µM | TGI (ACHN renal): > 100 µM | TGI (BT-549 breast): 41.7 µM | TGI (CAKI-1 renal): > 100 µM | TGI (COLO 205 colon): > 100 µM | TGI (DU-145 prostate): 64.3 µM | TGI (HCT-116 colon): 47.1 µM | TGI (HCT-15 colon): 40.5 µM | TGI (HL-60(TB) leukemia): 27.2 µM | TGI (HOP-62 NSCLC): 51.4 µM | TGI (HOP-92 NSCLC): 40.6 µM | TGI (HS 578T breast): 45.4 µM | TGI (HT29 colon): > 100 µM | TGI (IGROV1 ovarian): 45.7 µM | TGI (K-562 leukemia): > 100 µM | TGI (KM12 colon): 40.2 µM | TGI (LOX IMVI melanoma): 41.9 µM | TGI (M14 melanoma): 38.1 µM | TGI (MALME-3M melanoma): 83.9 µM | TGI (MCF7 breast): 72.7 µM | TGI (MDA-MB-231 breast): 30.6 µM | TGI (MDA-MB-435): 36.7 µM | TGI (MOLT-4 leukemia): > 100 µM | TGI (NCI-H226 lung): > 100 µM | TGI (NCI-H23 lung): 44.6 µM | TGI (NCI-H460 lung): > 100 µM | TGI (NCI-H522 lung): 47.5 µM | TGI (NCI/ADR-RES ovarian): > 100 µM | TGI (OVCAR-3 ovarian): 41.2 µM | TGI (OVCAR-4 ovarian): 39.6 µM | TGI (OVCAR-5 ovarian): > 100 µM | TGI (OVCAR-8 ovarian): 58.4 µM | TGI (PC-3 prostate): > 100 µM | TGI (RXF 393 renal): 44.6 µM | TGI (SF-268 CNS): 52.2 µM | TGI (SF-295 CNS): > 100 µM | TGI (SF-539 CNS): 67.8 µM | TGI (SK-MEL-2 melanoma): 35.1 µM | TGI (SK-MEL-28 melanoma): > 100 µM | TGI (SK-MEL-5 melanoma): > 100 µM | TGI (SK-OV-3 ovarian): > 100 µM | TGI (SN12C renal): 55.3 µM | TGI (SNB-19 CNS): 78.8 µM | TGI (SNB-75 CNS): 39.8 µM | TGI (SR leukemia): > 100 µM | TGI (SW-620 colon): > 100 µM | TGI (T-47D breast): 60.2 µM | TGI (TK-10 renal): > 100 µM | TGI (U251 CNS): 73.4 µM | TGI (UACC-257 melanoma): 37.8 µM | TGI (UACC-62 melanoma): 35.5 µM | TGI (UO-31 renal): 51.7 µM

CCN(Cc1ccc(F)cc1)c1ccc(CO)c(OC)c1
GI50 (786-0 renal): 21.4 µM | TGI (786-0 renal): 65.1 µM | GI50 (A498 renal): 0.331 µM | TGI (A498 renal): 1.37 µM | GI50 (A549 NSCLC): 40.1 µM | TGI (A549 NSCLC): > 100 µM | GI50 (ACHN renal): 17.1 µM | TGI (ACHN renal): 53.7 µM | GI50 (BT-549 breast): 7.7 µM | TGI (BT-549 breast): 32.7 µM | GI50 (CAKI-1 renal): 4.69 µM | TGI (CAKI-1 renal): 33.3 µM | GI50 (CCRF-CEM leukemia): 21.2 µM | TGI (CCRF-CEM leukemia): 72 µM | GI50 (COLO 205 colon): 13.4 µM | TGI (COLO 205 colon): 29.7 µM | GI50 (DU-145 prostate): 27.6 µM | TGI (DU-145 prostate): > 95.2 µM | GI50 (HCC-2998 colon): 21.9 µM | TGI (HCC-2998 colon): > 60.5 µM | GI50 (HCT-116 colon): 10 µM | TGI (HCT-116 colon): 28.2 µM | GI50 (HCT-15 colon): 14.6 µM | TGI (HCT-15 colon): 41 µM | GI50 (HL-60(TB) leukemia): 16 µM | TGI (HL-60(TB) leukemia): 46.4 µM | GI50 (HOP-62 NSCLC): 40.8 µM | TGI (HOP-62 NSCLC): > 100 µM | GI50 (HOP-92 NSCLC): 7.29 µM | TGI (HOP-92 NSCLC): 37.2 µM | GI50 (HS 578T breast): 14.9 µM | TGI (HS 578T breast): > 100 µM | GI50 (HT29 colon): 24 µM | TGI (HT29 colon): > 67.5 µM | GI50 (IGROV1 ovarian): 6.62 µM | TGI (IGROV1 ovarian): 27.8 µM | GI50 (K-562 leukemia): 20 µM | TGI (K-562 leukemia): > 92 µM | GI50 (KM12 colon): 36.5 µM | TGI (KM12 colon): > 100 µM | GI50 (LOX IMVI melanoma): 27.8 µM | TGI (LOX IMVI melanoma): > 100 µM | GI50 (M14 melanoma): 31.1 µM | TGI (M14 melanoma): > 100 µM | GI50 (MALME-3M melanoma): 3.21 µM | TGI (MALME-3M melanoma): 14.3 µM | GI50 (MCF7 breast): 25.3 µM | TGI (MCF7 breast): > 100 µM | GI50 (MDA-MB-231 breast): 23.1 µM | TGI (MDA-MB-231 breast): > 88.5 µM | GI50 (MDA-MB-435): 25.7 µM | TGI (MDA-MB-435): > 100 µM | GI50 (MOLT-4 leukemia): 20.1 µM | TGI (MOLT-4 leukemia): 72.4 µM | GI50 (NCI-H226 lung): 1.15 µM | TGI (NCI-H226 lung): 2.77 µM | GI50 (NCI-H23 lung): 23.3 µM | TGI (NCI-H23 lung): > 100 µM | GI50 (NCI-H460 lung): 23.2 µM | TGI (NCI-H460 lung): > 100 µM | GI50 (NCI-H522 lung): 6.61 µM | TGI (NCI-H522 lung): 20 µM | GI50 (NCI/ADR-RES ovarian): 17.6 µM | TGI (NCI/ADR-RES ovarian): 55.5 µM | GI50 (OVCAR-3 ovarian): 13.1 µM | TGI (OVCAR-3 ovarian): 27.5 µM | GI50 (OVCAR-4 ovarian): 7.02 µM | TGI (OVCAR-4 ovarian): 20.6 µM | GI50 (OVCAR-5 ovarian): 2.64 µM | TGI (OVCAR-5 ovarian): 12.2 µM | GI50 (OVCAR-8 ovarian): 19.2 µM | TGI (OVCAR-8 ovarian): > 64.5 µM | GI50 (PC-3 prostate): 13.3 µM | TGI (PC-3 prostate): 33.9 µM | GI50 (RPMI-8226 leukemia): 15.9 µM | TGI (RPMI-8226 leukemia): 50.5 µM | GI50 (RXF 393 renal): 9.44 µM | TGI (RXF 393 renal): 23.6 µM | GI50 (SF-268 CNS): 22.1 µM | TGI (SF-268 CNS): > 65.4 µM | GI50 (SF-295 CNS): 23.5 µM | TGI (SF-295 CNS): > 84.3 µM | GI50 (SF-539 CNS): 45.1 µM | TGI (SF-539 CNS): > 100 µM | GI50 (SK-MEL-2 melanoma): 11.9 µM | TGI (SK-MEL-2 melanoma): 27.7 µM | GI50 (SK-MEL-28 melanoma): 20.2 µM | TGI (SK-MEL-28 melanoma): > 100 µM | GI50 (SK-MEL-5 melanoma): 11.9 µM | TGI (SK-MEL-5 melanoma): 24.9 µM | GI50 (SK-OV-3 ovarian): 15.3 µM | TGI (SK-OV-3 ovarian): > 94.6 µM | GI50 (SN12C renal): 21.9 µM | TGI (SN12C renal): > 100 µM | GI50 (SNB-19 CNS): 43.7 µM | TGI (SNB-19 CNS): > 100 µM | GI50 (SNB-75 CNS): 11.6 µM | TGI (SNB-75 CNS): > 100 µM | GI50 (SR leukemia): 19.5 µM | TGI (SR leukemia): 55.7 µM | GI50 (SW-620 colon): 21.1 µM | TGI (SW-620 colon): > 100 µM | GI50 (T-47D breast): 6.32 µM | TGI (T-47D breast): 33.4 µM | GI50 (TK-10 renal): 2.14 µM | TGI (TK-10 renal): 16.8 µM | GI50 (U251 CNS): 22.1 µM | TGI (U251 CNS): 99.3 µM | GI50 (UACC-257 melanoma): 8.85 µM | TGI (UACC-257 melanoma): 42.7 µM | GI50 (UACC-62 melanoma): 4.14 µM | TGI (UACC-62 melanoma): 17.3 µM | GI50 (UO-31 renal): 13.7 µM | TGI (UO-31 renal): 35.6 µM
